Assay [1] relates to MSK2922 head & neck cancer cell line. The assay can be described thus: Modified MTT growth inhibition assay. The format is cell-based. Particulars: SNDX275 added as first drug. As for the experimental part: (§1) Combination administrations were performed as sequential treatments where the HDAC inhibitor was administer prior to the EGFR inhibitor, or simultaneous treatments in selected cell lines. Concentrations of HDAC inhibitors and EGFR inhibitors are indicated as μM concentrations in all experiments. SNDX275 was administered in three increasing concentrations, with a variety of ranges depending upon the cell line.
(§2) Drugs were diluted in fresh medium before each experiment, and the final DMSO concentration was <0.1%. Growth inhibition was assessed using a modified MTT assay. 2×10^3 cells were plated in each well of 96-well flat-bottomed microtiter plates and drugs were added the next day. […] The microtiter plates were incubated for 4 hours at 37° C. The visible absorbance of each well was measured using an automated plate reader (Molecular Devices, Sunnyvale, Calif.), and data were analyzed using SlideWrite to determine the drug IC50.
On the technique in general: Tetrazolium dyes change colour on reduction, which living cells bring about.

For assay [2], the system named is UMSCC19 head & neck cancer cell line. Kind of assay: Modified MTT growth inhibition assay. The format is cell-based. The protocol:
as §1, §2

Assay [3] has as its system Panc04.03 pancreatic cancer cell line. The assay can be described thus: Modified MTT growth inhibition assay. The format is cell-based. To be noted: Panc 04.03. The protocol: as §1, §2
For assay [4], the system named is Panc02.03 pancreatic cancer cell line. The assay can be described thus: Modified MTT growth inhibition assay. The format is cell-based. To be noted: Panc 02.03. As for the experimental part: as §1, §2
Assay [5] has as its system Panc03.27 pancreatic cancer cell line. The assay can be described thus: Modified MTT growth inhibition assay. The format is cell-based. To be noted: Panc 03.27, both drugs added at the same time. As for the experimental part: as §1, §2
Assay [6] relates to UMSCC22B head & neck cancer cell line. The assay can be described thus: Modified MTT growth inhibition assay. The format is cell-based. The protocol:
as §1, §2

Assay [7] relates to FaDu head & neck cancer cell line. Kind of assay: Modified MTT growth inhibition assay. The format is cell-based. As for the experimental part:
as §1, §2

In assay [8] the test system is HPAFII pancreatic cancer cell line. Kind of assay: Modified MTT growth inhibition assay. The format is cell-based. Particulars: SNDX275 added as first drug. As for the experimental part: as §1, §2
For assay [9], the system named is 1483 head & neck cancer cell line. The assay can be described thus: Modified MTT growth inhibition assay. The format is cell-based. To be noted: SNDX275 added as first drug. As for the experimental part:
as §1, §2

For assay [10], the system named is HS766T pancreatic cancer cell line. The assay can be described thus: Modified MTT growth inhibition assay. The format is cell-based. The protocol: as §1, §2
The test system of assay [11] is 584 head & neck cancer cell line. The assay can be described thus: Modified MTT growth inhibition assay. The format is cell-based. Particulars: SNDX275 added as first drug. As for the experimental part:
as §1, §2

Assay [12] relates to Detroit562 head & neck cancer cell line. The assay can be described thus: Modified MTT growth inhibition assay. The format is cell-based. As for the experimental part: as §1, §2
In the next assay the test system is NSCLC patients. To be noted: single agent, phase I studies including chemotherapy resistant NSCLC patients; cited from earlier work.
A further assay relates to A549 NSCLC cell line. Kind of assay: Apoptosis and cell death analysis. The format is cell-based. Particulars: 10 μM gefitinib. As for the experimental part:
The effect of gefitinib on inducing apoptosis and cell death in NSCLC cell lines sensitive and resistant to gefitinib was evaluated. […].

In another assay the test system is H157 NSCLC cell line. Kind of assay: Apoptosis and cell death analysis. The format is cell-based. To be noted: 10 μM gefitinib. The protocol:
(§3) The effect of gefitinib on inducing apoptosis and cell death in NSCLC cell lines sensitive and resistant to gefitinib was evaluated. […] Expression of E-cad was evaluated in these cell lines.

Another assay concerns H520 NSCLC cell line. The assay can be described thus: Apoptosis and cell death analysis. The format is cell-based. Particulars: 10 μM gefitinib. As for the experimental part: as §3
For the next assay, the system named is H460 NSCLC cell line. The assay can be described thus: Apoptosis and cell death analysis. The format is cell-based. To be noted: 10 μM gefitinib. The protocol:
as §3

Another assay deals with EGFR. Kind of assay: EGFR phosphorylation in E-cad transfected H157 cell lines. Particulars: E-cad transfected H157 cell lines treated with EGF. The format is cell-based. The protocol:
Cell Culture, Drugs and MTS assay. Twenty NSCLC cell lines were used: squamous (NCI-H157, HCC95, HCC15 and H441), large-cell (H460, H1299, H2126 and H1264, a derivative of H460), adeno (Calu3, A549, H2122, H1648, H520, HCC78, HCC193, H2009, HCC44 and H3255) and bronchioalveolar (H358 and H322). The NSCLC cell lines, HCC78, H2126, HCC95, H1299, HCC193, HCC44, HCC15, H2009 were obtained from UTSW and the H3255 was a gift from Dr. Bruce Johnson. All lines were cultured in RPMI medium 1640 under standard conditions. […] The drugs were diluted in fresh media before each experiment, and the final dimethyl sulfoxide concentration was <0.1%. […] Growth inhibition was assessed by MTS (3-(4,5-dimethylthiazol-2-yl)-5-(3-carboxymethoxyphenyl)-2-(4-sulfophenyl)2H-tetrazolium, inner salt) assay (Promega, Madison, Wis.). […] The absorbency of each well is measured using an automated plate reader. The data was analyzed using a SlideWrite program to determine the IC50 of the drug. […] After sonication, the Bradford assay was used for protein quantification. […]
The effect of E-cad on NSCLC cell lines apoptotic response to gefitinib was assessed by transfecting a gefitinib-resistant cell line, H157, with an E-cad-encoding adenovirus. […] Higher expression of E-cad was detected in the H157-E-cad-3 cell line compared to the H157-E-cad-3 cell line. […]

The mark [13] stands for this setting: erlotinib 0.3 μM alone, SNDX275 added as first drug.
Where [14] appears, read: erlotinib 0.3 μM alone, both drugs added at the same time.
Where [15] appears, read: erlotinib 2.0 μM alone, SNDX275 added as first drug.
[16] abbreviates: erlotinib 2.0 μM alone, both drugs added at the same time.
[17] abbreviates: erlotinib 6.0 μM alone, SNDX275 added as first drug.
[18] abbreviates: erlotinib 6.0 μM alone, both drugs added at the same time.
The mark [19] stands for this setting: erlotinib 10.0 μM alone, both drugs added at the same time.
Where [20] appears, read: erlotinib 0.06 μM alone, SNDX275 added as first drug.
Where [21] appears, read: erlotinib 0.06 μM alone, both drugs added at the same time.
[22] abbreviates: erlotinib 3.00 μM alone, SNDX275 added as first drug.
Where [23] appears, read: erlotinib 3.00 μM alone, both drugs added at the same time.

Turning to `C#Cc1cccc(Nc2ncnc3cc(OCCOC)c(OCCOC)cc23)c1` [erlotinib], the surviving is on record as 76.960% in [1] (erlotinib 0.5 μM alone); 49.683% in [1] (erlotinib 5.0 μM alone); 16.390% in [1] (erlotinib 10.0 μM alone); 70.495% in assay [2] (erlotinib 0.03 μM alone, SNDX275 added as first drug (first table)); 89.125% in assay [2] (erlotinib 0.03 μM alone, SNDX275 added as first drug (second table)); 40.636% in assay [2] (erlotinib 2.00 μM alone, SNDX275 added as first drug (first table)). The surviving was 49.820% in assay [2] (erlotinib 2.00 μM alone, SNDX275 added as first drug (second table)); 22.618% in [2] (erlotinib 6.00 μM alone, SNDX275 added as first drug (first table)); 29.934% in [2] (erlotinib 6.00 μM alone, SNDX275 added as first drug (second table)); 77.213% in assay [3] (setting [13]); 65.993% in assay [3] (setting [14]); 53.936% in [3] (setting [15]). Further, the surviving in assay [3] (setting [16]) was determined as 63.603%; in assay [3] (setting [17]), 30.300%; in assay [3] (setting [18]), 47.335%; in assay [4] (setting [13]), 63.194%; in assay [4] (setting [14]) it was 54.857%; in assay [4] (setting [15]) it was 53.632%. Besides, the surviving in assay [4] (setting [16]) is 53.313%; in assay [4] (setting [17]) it was 27.404%; in assay [4] (setting [18]) it was 36.701%; in assay [5] (erlotinib 0.03 μM alone) it was 73.670%; in assay [5] (erlotinib 0.60 μM alone) it was 43.685%; in assay [5] (erlotinib 6.00 μM alone) it was 19.177%. The surviving in assay [6] (erlotinib 3.0 μM alone, SNDX275 added as first drug) is reported as 79.839%; in assay [6] (erlotinib 3.0 μM alone, both drugs added at the same time), 78.643%; in [6] (erlotinib 7.0 μM alone, SNDX275 added as first drug), 53.060%; in assay [6] (erlotinib 7.0 μM alone, both drugs added at the same time), 56.412%; in [6] (erlotinib 10.0 μM alone, SNDX275 added as first drug) it was 29.839%; in [6] (setting [19]), 49.762%. Also, the surviving in assay [7] (setting [20]) is 83.931%; in assay [7] (setting [21]), 98.703%; in [7] (erlotinib 0.30 μM alone, SNDX275 added as first drug), 49.364%; in assay [7] (erlotinib 0.30 μM alone, both drugs added at the same time), 55.823%; in [7] (setting [22]), 24.489%; in assay [7] (setting [23]), 27.463%. For the same compound, the surviving in assay [8] (erlotinib 0.03 μM alone) worked out at 79.346%; in assay [8] (erlotinib 1.00 μM alone) it was 49.804%; in assay [8] (erlotinib 6.00 μM alone), 28.170%; in [9] (erlotinib 6.0 μM alone), 67.497%; in assay [9] (erlotinib 8.0 μM alone), 52.894%; in [9] (erlotinib 10.0 μM alone), 43.652%. Further, the surviving in [10] (erlotinib 1.0 μM alone, SNDX275 added as first drug) was 71.523%; in assay [10] (erlotinib 1.0 μM alone, both drugs added at the same time), 77.921%; in assay [10] (setting [17]), 49.547%; in assay [10] (setting [18]), 46.785%; in assay [10] (setting [19]), 37.138%; in assay [11] (erlotinib 3.0 μM alone) it was 70.581%. In addition, the surviving in assay [11] (erlotinib 7.0 μM alone) worked out at 49.941%; in assay [11] (erlotinib 10.0 μM alone), 25.563%; in [12] (setting [20]), 81.459%; in assay [12] (setting [21]), 73.569%; in assay [12] (erlotinib 0.60 μM alone, SNDX275 added as first drug) it was 56.459%; in assay [12] (erlotinib 0.60 μM alone, both drugs added at the same time), 40.826%. Further, the surviving in [12] (setting [22]) amounted to 28.582%; in assay [12] (setting [23]) it was 17.946%. Also, the response rates result in the assay with NSCLC patients is reported as “about 10%”.

As to `COc1cc2ncnc(Nc3ccc(F)c(Cl)c3)c2cc1OCCCN1CCOCC1` [gefitinib], the “apoptotic or necrotic effect” value with A549 NSCLC cell line, with H157 NSCLC cell line, in the assay with H520 NSCLC cell line and in the assay on H460 NSCLC cell line was “no apoptotic or necrotic effect” each time. Besides, the response rates result in the assay with NSCLC patients is listed as “about 10%”.

As to “EGF: Epidermal growth factor purchased from R&D Systems Inc. (NSDSECPLSHDGYCLHDGVCMYIEALDKYACNCVVGYIGERCQYRDLKWWELR; Epidermal growth factor; UniProt P01133 971-1023, looked up)”, the “increase in EGFR phosphorylation” value in the assay on EGFR was “two fold increase”.

The values above are taken from US20120141479A1, “Histone Deacetylase Inhibitors Sensitize Cancer Cells To Epidermal Growth Factor Inhibitors” (priority 2007, published 2012).
